Data: PMC6934184, “Selective DNA-PKcs inhibition extends the therapeutic index of localized radiotherapy and chemotherapy” (The Journal of Clinical Investigation, 2019)

Target: T1, FGFR2 (Homo sapiens, UniProt P21802)
T1 construct: purchased Thermo Fisher Scientific (Life Technologies) SelectScreen
Assay: SelectScreen Z'LYTE
Type: biochemical
Summary of the method: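 SelectScreen broad panel; activity (Z'LYTE, Adapta) plus binding formats. ATP: Km app for CSF1R Z'LYTE; 10 for CAMK1 Adapta. Readout = % per kinase.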

T1 sequence (P21802 22-821): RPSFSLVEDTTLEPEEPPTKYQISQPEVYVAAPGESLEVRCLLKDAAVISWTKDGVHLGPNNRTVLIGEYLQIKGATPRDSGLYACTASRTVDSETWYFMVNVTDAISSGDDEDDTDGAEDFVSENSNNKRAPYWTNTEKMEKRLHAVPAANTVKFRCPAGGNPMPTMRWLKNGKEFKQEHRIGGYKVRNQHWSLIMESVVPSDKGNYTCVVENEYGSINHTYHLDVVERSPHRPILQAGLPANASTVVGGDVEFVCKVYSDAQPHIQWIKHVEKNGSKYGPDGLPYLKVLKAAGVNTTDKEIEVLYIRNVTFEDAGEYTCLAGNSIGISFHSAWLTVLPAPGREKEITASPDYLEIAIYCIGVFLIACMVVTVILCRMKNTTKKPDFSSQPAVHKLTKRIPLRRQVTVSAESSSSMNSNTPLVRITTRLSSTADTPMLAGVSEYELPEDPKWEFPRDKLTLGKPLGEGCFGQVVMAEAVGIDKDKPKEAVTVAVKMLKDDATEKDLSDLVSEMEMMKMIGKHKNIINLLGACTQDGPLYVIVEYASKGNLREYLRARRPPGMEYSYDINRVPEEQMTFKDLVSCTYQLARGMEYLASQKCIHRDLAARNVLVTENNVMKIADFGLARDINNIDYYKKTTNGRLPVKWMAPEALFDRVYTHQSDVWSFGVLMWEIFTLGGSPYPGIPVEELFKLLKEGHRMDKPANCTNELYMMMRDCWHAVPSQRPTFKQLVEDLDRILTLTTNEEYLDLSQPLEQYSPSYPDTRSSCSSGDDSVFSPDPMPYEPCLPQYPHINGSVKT

CN(C(=O)CN1CCOCC1)c1ccc2sc3c(-c4cccc5c(=O)cc(N6CC7CCC(C6)O7)oc45)cccc3c2c1 [NU5455]
inhibition at 1 µM: 0%
